Where “and” joins values, the source holds several entries; their conditions need not be identical. Equal entries are not always repeated. Entries after “also recorded” stand apart in the source; their conditions may differ. Where two headings read alike, the source gives them in different places.
Tests used:
FMRP [1] = experiment: Western blot of FMRP relative to GAPDH in FXS1 LCL (GM07365); format: cell-based, human; settings: 5-AzadC 1 μM alone, 7 days
Experimental: For each cell culture, 30×10^5 cells/mL were added in a final volume of 20 mL medium (RPMI 1640 medium (Sigma-Aldrich), supplemented with 15% FBS and 2.5% L-glutamine at 37° C. with 5% CO2) per T25 flask. 5-Aza-2′-deoxycytidine (5-AzaC) (Sigma-Aldrich, A3656) was added to the cell cultures (final concentration 1 μM) for 7 consecutive days. A 2 mM stock of 5-AzaC was made in DMSO. For each cell line, two independent treatments were performed (n=2). For the no treatment controls for each cell line, DMSO was added to the flasks. […]
Cells were homogenized at 4° C. in RIPA buffer with incubation on ice for 10 minutes and dissociation by pipetting. […] Protein concentration was determined by BCA reagent. Proteins (10 μg) were diluted in SDS-bromophenol blue reducing buffer with 40 mM DTT and analyzed using western blotting on a 10% SDS-PAGE gel with the following antibodies: FMRP (Abcam, 1:2000) and GAPDH (Cell signaling, 1:2000) diluted in 1×TBST with 5% non-fat milk. […]
Cells were homogenized at 4° C. in RIPA buffer, with incubation on ice for 10 minutes and dissociation by pipetting. […] Protein concentration was determined using BCA reagent. […]
Cells were homogenized at 4° C. in radioimmunoprecipitation assay (RIPA) lysis buffer with incubation on ice for 10 minutes and dissociation by pipetting. […] Protein concentration was determined by BCA reagent.

FMR1-217 RNA [2] = experiment: RT-qPCR of FMR1-217 and FMR1 in FXS lung fibroblasts (GM07072) treated with 5-AzadC and ASOs 713/714; format: cell-based, human; settings: fully methylated FMR1, 5-AzadC in the absence of ASOs
Experimental: FIG. 15D Lung fibroblasts derived from a FXS individual (GM07072, Coriell Institute) were cultured with 5-AzadC for 8 days and then treated with ASOs 713/714 (100 nM each) for 72 hours prior to RNA and protein extraction. RT-qPCR analysis of FMR1-217, FMR1, and GAPDH RNAs in lung fibroblasts treated with DMSO, ASOs 713/714, 5-AzadC, or the ASOs 713/714 plus 5-AzadC. The amounts of FMR1-217 and FMR1 were made relative to GAPDH. (*p<0.05, **p<0.01, ***p<0.001, one way ANOVA with multiple comparisons test).
FIG. 21D Lung fibroblasts derived from an FXS individual (GM07072, Coriell Institute) were cultured with 5-AzadC for 8 days and then treated with ASOs 713/714 (100 nM each) for 72 hours prior to RNA and protein extraction. RT-qPCR analysis of FMR1-217, FMR1, and GAPDH RNAs in lung fibroblasts treated with DMSO, ASOs 713/714, 5-AzadC, or the ASOs 713/714 plus 5-AzadC. The amounts of FMR1-217 and FMR1 were made relative to GAPDH (*P<0.05, **P<0.01, ***P<0.001, one-way ANOVA with multiple comparisons test).

[3] = test system: FMR1 transcripts (total, FMR1-205, FMR1-217); settings: FXS iPSC-derived NSCs, reanalyzed from RNA-seq data of Vershkov et al., cited from earlier work
FMR1-217 RNA [4] = experiment: RT-qPCR of FMR1-217 and full-length FMR1 in partially methylated FXS2 LCL (GM06897); format: cell-based, human; settings: 5-AzadC 1 μM, 7 days, vs DMSO
Experimental: (§1) One microgram (μg) of total RNA was primed with oligo(dT)20 to generate cDNA with a QuantiTect cDNA synthesis kit (Qiagen, #205311) using random hexamers (Table 3). qPCR was performed using the iTaq™ Universal SYBR® Green Supermix (BIO-RAD #1725122) on a QuantStudio 3 qPCR machine in duplicate.
(§2) Antisense oligonucleotides (ASOs) were dissolved in ultrapure distilled water to a final concentration of 10 μM. Before use, the ASOs were heated to 55° C. for 15 minutes and cooled at room temperature. ASOs were added, individually or in combinations, to LCL cell lines at a final concentration of 80 nM or 160 nM using Lipofectamine RNAIMAX® Transfection Reagent (Thermo Fisher Scientific, 13778030) and incubated at 37° C. with 5% CO2 for 16 hours in reduced serum medium. RPMI 1640 medium (Sigma-Aldrich), supplemented with 15% fetal bovine serum (FBS) was added for a total of 72 hours. The cells were collected after 72 hours of ASO treatment for RNA and protein extraction.
For each cell culture, 30×10^5 cells/mL were added to a final volume of 20 mL medium (RPMI 1640 medium (Sigma-Aldrich) supplemented with 15% fetal bovine serum (FBS) and 2.5% L-glutamine at 37° C. with 5% CO2) per T25 flask. 5-Aza-2′-deoxycytidine (5-AzadC) (Sigma-Aldrich, A3656) was added to the cell cultures (final concentration 1 μM) for 7 consecutive days. A 2 mM stock of 5-AzadC was made in DMSO. […]

FMRP [5] = experiment: Western blot of FMRP in FXS dermal fibroblasts (GM05131B); format: cell-based, human; settings: 5-AzadC alone
Experimental: (§3) Cells were homogenized at 4° C. in RIPA buffer, with incubation on ice for 10 minutes and dissociation by pipetting. The extract was centrifuged at 13,200 rpm for 10 minutes at 4° C., and the supernatant collected. Protein concentration was determined using BCA reagent. Proteins (10 μg) were diluted in SDS-bromophenol blue reducing buffer with 40 mM DTT and analyzed using western blotting with the following antibodies: FMRP (Millipore, mAb2160, 1: 1,000), FMRP (Abcam, ab17722, 1:1,000) and GAPDH (14C10, Cell Signaling Technology, mAb 2118, 1:2,000), diluted in 1×TBST with 5% non-fat milk. Membranes were washed three times for 10 minutes with 1×TBST and incubated with anti-rabbit or anti-mouse secondary antibodies (Jackson, 1:10,000) at room temperature for 1 hour. Membranes were washed three times for 10 minutes with 1×TBST, developed with ECL-Plus (Piece), and scanned with GE Amersham Imager.
Cells were homogenized at 4° C. in radioimmunoprecipitation assay (RIPA) lysis buffer with incubation on ice for 10 minutes and dissociation by pipetting. The extract was centrifuged at 13,200 rpm for 10 minutes at 4° C., and the supernatant was collected. Protein concentration was determined by BCA reagent.

FMR1 RNA = settings: FXS LCLs; 36 days of 5-AzadC; previous study; cited from earlier work
FMR1-217 RNA [6] = experiment: RT-qPCR of FMR1-217 and full-length FMR1 in fully methylated FXS1 LCL (GM07365) treated with 5-AzadC and/or ASOs; format: cell-based, human; settings: 5-AzadC (5-AzaC) 1 μM alone, 7 days, vs DMSO
Experimental: For each cell culture, 30×10^5 cells/mL were added in a final volume of 20 mL medium (RPMI 1640 medium (Sigma-Aldrich), supplemented with 15% FBS and 2.5% L-glutamine at 37° C. with 5% CO2) per T25 flask. 5-Aza-2′-deoxycytidine (5-AzaC) (Sigma-Aldrich, A3656) was added to the cell cultures (final concentration 1 μM) for 7 consecutive days. A 2 mM stock of 5-AzaC was made in DMSO. For each cell line, two independent treatments were performed (n=2). For the no treatment controls for each cell line, DMSO was added to the flasks. For samples with both 5-AzaC and ASO treatment, 80 nM ASOs or vehicle were added on Day 1 and either 5-AzaC or DMSO was added each day from Day 2 up to Day 9 at a final concentration of 1 μM. On Day 9 the cells were collected in 1×Phosphate buffered saline to proceed with RNA extraction or Western blotting.
as §1, §2
For each cell culture, 30×10^5 cells/mL were added to a final volume of 20 mL medium (RPMI 1640 medium (Sigma-Aldrich) supplemented with 15% fetal bovine serum (FBS) and 2.5% L-glutamine at 37° C. with 5% CO2) per T25 flask. 5-Aza-2′-deoxycytidine (5-AzadC) (Sigma-Aldrich, A3656) was added to the cell cultures (final concentration 1 μM) for 7 consecutive days. A 2 mM stock of 5-AzadC was made in DMSO. For each cell line, two independent treatments were performed (n=2). For the no treatment controls for each cell line, DMSO was added to the flasks. For samples with both 5-AzadC and ASO treatment, 80 nM or 160 nM ASOs or vehicle were added on Day 1 and either 5-AzadC or DMSO was added each day from Day 2 up to Day 9 at a final concentration of 1 μM. On Day 9 the cells were collected in 1× phosphate buffered saline to proceed with RNA extraction or Western blotting. […]

FMRP [7] = experiment: Western blot of FMRP relative to GAPDH in FXS2 LCL (GM06897); format: cell-based, human; settings: 5-AzadC 1 μM, 7 days
Experimental: as §2, with “The cells were collected after 72 hours of ASO treatment for RNA and protein extraction.” left out
as §3, with “Membranes were washed three times for 10 minutes with 1×TBST and incubated with anti-rabbit or anti-mouse secondary antibodies (Jackson, 1:10,000) at room temperature for 1 hour. Membranes were washed three times for 10 minutes with 1×TBST, developed with ECL-Plus (Piece), and scanned with GE Amersham Imager.” left out
Cells were homogenized at 4° C. in radioimmunoprecipitation assay (RIPA) lysis buffer with incubation on ice for 10 minutes and dissociation by pipetting. […] Protein concentration was determined by BCA reagent. […]

With `Nc1ncn([C@H]2C[C@H](O)[C@@H](CO)O2)c(=O)n1` [5-AzadC, 5-Aza-2′-deoxycytidine] the “FMRP level (western blot, relative to GAPDH)” value (FMRP [1]) was “little or no FMRP; also recorded: increased FMR1-217 RNA levels but not FMRP; also recorded: In neither cell line did 5-AzadC treatment induce a significant increase in FMRP; also recorded: did not affect FMRP levels; also recorded: unaffected; also recorded: little FMRP; also recorded: modest increase; also recorded: modestly affected”, the “FMR1-217 RNA level” value (FMR1-217 RNA [2]) was “increased” and the “FMR1 RNA level” value (FMR1-217 RNA [2]) was “increased”. The “FMR1 (total) reads” value ([3]; biologic duplicate) was 9.9 TPM and 6.1 TPM, the FMR1-217 reads ([3]; biologic duplicate) was 6.9 TPM and 3.9 TPM and the “FMR1-217 RNA-seq reads (in words)” value [3] was “clearly evident; also recorded: strong FMR1-217 expression; also recorded: reads corresponding to FMR1-217; also recorded: detected only in the 5-AzadC-treated samples”. For the same compound, the “total FMR1 and FMR1-205 expression (in words)” value [3] was “strong total FMR1 and FMR1-205 expression; also recorded: expressed”, the “FMR1-217 RNA-seq reads (in words)” value ([3]; listed as 5-azadC) was “detected only in the 5-azadC-treated samples” and the “full-length FMR1 RNA level” value (FMR1-217 RNA [4]) was “increase of only full-length FMR1 RNA”. The “FMRP level (western blot)” value (FMRP [5]) was “no effect”, the “FMRP level compared to that in TD cells” value (FMR1 RNA) was “even lower level” and the “restoration of FMR1 RNA” value (FMR1 RNA) was “up to 40%”. For the same compound, the “FMR1-217 (iso12) RNA level” value (FMR1-217 RNA [6]) was “synthesis of both FMR1 and FMR1-217 RNAs; also recorded: increased FMR1-217 RNA levels; also recorded: significant increases; also recorded: expected increase; also recorded: resulted in the expression of FMR1-217 and full-length FMR1”, the “full-length FMR1 (iso1) RNA level” value (FMR1-217 RNA [6]) was “synthesis of both FMR1 and FMR1-217 RNAs; also recorded: significant increases; also recorded: expected increase; also recorded: resulted in the expression of FMR1-217 and full-length FMR1” and the “FMR1-217 (iso12) RNA level” value (FMR1-217 RNA [6]; listed as 5-AzaC) was “increase in FMR1 iso12”. For the same compound, the “full-length FMR1 (iso1) RNA level” value (FMR1-217 RNA [6]; listed as 5-AzaC) was “increase in FMR1 iso1” and the “FMRP level (western blot, relative to GAPDH)” value (FMRP [7]) was “In neither cell line did 5-AzadC treatment induce a significant increase in FMRP”.
